Assay results published in patent US20220184032A1, “INDOLINE DERIVATIVES FOR TREATMENT AND/OR PREVENTION OF FIBROSIS DISEASES” (Taipei Medical University, priority 2015, published 2022).
Read-outs that look alike come from different tables or passages of the source.

What was measured:
[1] = system: CHO
[2] = system: Salmonella typhimurium TA98; assay: Ames test, TA98
Experimental: (§1) Two histidine auxotrophic mutants (TA98 and TA100) of Salmonella typhimurium were used. Test strains were obtained from the frozen working stock vial and thawed at room temperature. A 0.2 mL aliquot was inoculated into 25 mL nutrient broth medium and then incubated at 35-37° C. with shaking (120 rpm) for 16-18 hours. The test substance was dissolved in DMSO with 10-fold dilutions to obtain 4 stock concentrations at 30,000, 3,000, 300 and 30 μg/mL. Rat liver microsome enzyme homogenate (S9) mixture was prepared containing 8 mM MgCl2, 33 mM KCl, 4 mM NADP, 5 mM glucose-6-phosphate, 100 mM NaH2PO4 (pH 7.4) and 4% (v/v) Aroclor 1254-induced male rat liver microsome enzyme homogenate (S9). A […] aliquot of test compound stock solution was combined with 0.1 mL strain culture and with 0.5 mL rat liver enzyme homogenate (S9) mixture or 0.5 mL PBS, and then the mixture was incubated at 35-37° C. with shaking (120 rpm) for 20 min. Molten top agar (2 mL containing 0.05 mM histidine and 0.05 mM biotin) was added, and then the mixture was poured onto the surface of a minimal glucose agar plate (30 mL of bottom agar per petri plate) to obtain final test substance concentrations at 3000, 300, 30 and 3μg/plate. The plates were incubated at 37° C. for 72 hours, and then the numbers of His+ revertant colonies were counted. Treatments resulting in a three-fold increase (≥3×) in revertant colonies compared to the vehicle control were considered mutagenic. Treatments that reduced the colony counts to ≤50% of the vehicle control were considered cytotoxic. Assays were performed in triplicate.

[3] = system: Salmonella typhimurium TA100; assay: Ames test, TA100
Experimental: as §1

[4] = system: BLM-induced lung fibrosis; assay: Bleomycin (BLM)-induced lung fibrosis mice model, preventive model; assay type: in vivo; settings: days 1 to 21 after BLM
Experimental: (§2) In preventive model, C57BL/6JNarl mice (8 weeks) were treated with bleomycin (BLM, 0.05 U/50 μl) or PBS (50 μl) by endotracheal administration. TMU-C-0012 (25, 50, 100 mg/kg/day, q.d.) and dexamethasone (0.5 mg/kg/day, q.d.) were administered orally to bleomycin-treated mice from 1 to 21 days after BLM treatment. On day 21, the mice were sacrificed and, the histologic analysis of lung tissue was performed by hematoxylin-eosin (H&E) staining (original magnification, ×100). In therapeutic model, C57BL/6JNarl mice (8 weeks) were treated with bleomycin (BLM, 0.05 U/50 μl) or PBS (50 μl) by endotracheal administration. TMU-C-0012 (25, 50, 100 mg/kg/day, q.d.) and pirfenidone (200 mg/kg/day, q.d.) were administered orally to bleomycin-treated mice from 10 to 38 days after BLM treatment. On day 39, the mice were sacrificed, and the histologic analysis of lung tissue was performed by hematoxylin-eosin (H&E) staining (original magnification, ×100).

[5] = system: BLM-induced lung fibrosis; assay: Bleomycin (BLM)-induced lung fibrosis mice model, therapeutic model; assay type: in vivo; settings: days 10 to 38 after BLM
Experimental: as §2

[6] = system: OVA-induced lung fibrosis; assay: OVA lung fibrosis mice model; assay type: in vivo; settings: weeks 4 to 12
Experimental: C57BL/6JNarl mice (8 weeks) were treated with OVA (50 μg/50 μl/day) or PBS (50 μl/day) by i.p. injection for 4 weeks. Then, mice were exposure of OVA (5% aerosol exposure) or PBS (aerosol exposure) for 8 weeks. TMU-C-0012 (25 mg/kg/day, q.d.) and dexamethasone (25 mg/kg/day, q.d.) were administered orally to OVA-injected mice from 4 weeks to 12 weeks. On weeks 12, the mice were sacrificed, and the histologic analysis of lung tissue was performed by hematoxylin-eosin (H&E) staining (original magnification, ×100).

[7] = system: CC14-induced liver fibrosis; assay: CC14-induced liver fibrosis in mice; assay type: in vivo; settings: weeks 2 to 6
Experimental: C57BL/6JNarl mice (8 weeks) were treated with CC14 (1 μl/μg/BW, q.w.) or PBS (1 μl/μg/BW, q.w.) by i.p. injection for 6 weeks. TMU-C-0012 (25, 50, 100 mg/kg/day, q.d.) and pirfenidone (250 mg/kg/day, q.d.) were administered orally to CC14-injected mice from 2 weeks to 6 weeks. On day 43, the mice were sacrificed, and the α-SMA analysis of liver tissue was performed by IHC staining (original magnification, ×100).

[8] = in vitro; settings: Chinese hamster, CHO cells with S9, % Cytotoxicity Cell Numbers; for cytotoxicity at 31 µM: 3.1E−05 M
[9] = reference compound, first section (CHO + S9, HCA), 3.6E−05 M
[10] = TA98, Without S9, 3000 μg/plate
[11] = TA100, Without S9, 300 μg/plate
[12] = TA100, Without S9, 3000 μg/plate
[13] = first section (CHO + S9, HCA), 1.3E−04 M
[14] = first section (CHO + S9, HCA), 2.5E−04 M
[15] = first section (CHO + S9, HCA), 3.1E−05 M
[16] = first section (CHO + S9, HCA), 5.0E−04 M
[17] = first section (CHO + S9, HCA), 6.3E−05 M
[18] = second section (CHO + S9, HCA), 1.6E−05 M
[19] = second section (CHO + S9, HCA), 3.1E−05 M
[20] = second section (CHO + S9, HCA), 7.8E−06 M

O=P1(N(CCCl)CCCl)NCCCO1 (stereo not shown) [Cyclophosphamide, reference compound]
% Cytotoxicity CBPI Index [1, 9]: 46.3% | % Micronucleated Cells [1, 9]: 5.31% | Test Result [1, 9]: + (p < 0.05 by t-test and % of micronucleated cells at least 3-fold higher than background levels.)

CO[C@@]12[C@H](COC(N)=O)C3=C(C(=O)C(C)=C(N)C3=O)N1C[C@@H]1N[C@@H]12 [Mitomycin C, reference compound]
% Micronucleated Cells ([1]; reference compound, second section (CHO + S9, HCA), 3.0E−07 M): 4.38%

O=C(/C=C/c1ccc2c(c1)CCN2S(=O)(=O)c1ccccc1)NO [TMU-C-0012, 3-(1-Benzenesulfonyl-2,3-dihydro-1H-indol-5-yl)-N-hydroxyacrylamide]
Cytotoxicity ([2]; TA98, With S9, 3 μg/plate): − | Mutagenicity ([2]; TA98, With S9, 3 μg/plate): − | Cytotoxicity ([2]; TA98, With S9, 30 μg/plate): − | Mutagenicity ([2]; TA98, With S9, 30 μg/plate): − | Cytotoxicity ([2]; TA98, With S9, 300 μg/plate): − | Mutagenicity ([2]; TA98, With S9, 300 μg/plate): − | Cytotoxicity ([2]; TA98, With S9, 3000 μg/plate): − | Mutagenicity ([2]; TA98, With S9, 3000 μg/plate): − | Cytotoxicity ([2]; TA98, Without S9, 3 μg/plate): − | Mutagenicity ([2]; TA98, Without S9, 3 μg/plate): − | Cytotoxicity ([2]; TA98, Without S9, 30 μg/plate): − | Mutagenicity ([2]; TA98, Without S9, 30 μg/plate): − | Cytotoxicity ([2]; TA98, Without S9, 300 μg/plate): − | Mutagenicity ([2]; TA98, Without S9, 300 μg/plate): − | Cytotoxicity [2, 10]: − | Mutagenicity [2, 10]: − | genotoxicity (Ames test results) ([2]; overall Ames test result, TA98 and TA100, with and without S9): negative | Cytotoxicity ([3]; TA100, With S9, 3 μg/plate): − | Mutagenicity ([3]; TA100, With S9, 3 μg/plate): − | Cytotoxicity ([3]; TA100, With S9, 30 μg/plate): − | Mutagenicity ([3]; TA100, With S9, 30 μg/plate): − | Cytotoxicity ([3]; TA100, With S9, 300 μg/plate): − | Mutagenicity ([3]; TA100, With S9, 300 μg/plate): − | Cytotoxicity ([3]; TA100, With S9, 3000 μg/plate): − | Mutagenicity ([3]; TA100, With S9, 3000 μg/plate): − | Cytotoxicity ([3]; TA100, Without S9, 3 μg/plate): − | Mutagenicity ([3]; TA100, Without S9, 3 μg/plate): − | Cytotoxicity ([3]; TA100, Without S9, 30 μg/plate): − | Mutagenicity ([3]; TA100, Without S9, 30 μg/plate): − | Cytotoxicity [3, 11]: − | Mutagenicity [3, 11]: − | Cytotoxicity [3, 12]: − | Mutagenicity [3, 12]: − | inhibition of BLM-induced lung fibrosis ([4]; 25, 50, 100 mg/kg/day q.d. orally, H&E lung histology day 21): inhibits BLM-induced lung fibrosis in a dose-dependent manner | efficacy in the inhibition compared with dexamethasone ([4]; dexamethasone 0.5 mg/kg/day q.d. orally): higher than dexamethasone | inhibition of BLM-induced lung fibrosis ([5]; 25, 50, 100 mg/kg/day q.d. orally, H&E lung histology day 39): inhibits BLM-induced lung fibrosis in a dose-dependent manner | efficacy in inhibition compared with pirfenidone ([5]; pirfenidone 200 mg/kg/day q.d. orally): higher than pirfenidone | inhibition of OVA-induced lung fibrosis ([6]; 25 mg/kg/day q.d. orally, H&E lung histology week 12): inhibits OVA-induced lung fibrosis in a dose dependent manner | efficacy in inhibition compared with dexamethasone ([6]; dexamethasone 25 mg/kg/day q.d. orally): higher than dexamethasone | inhibition on CC14-induced liver fibrosis ([7]; 25, 50, 100 mg/kg/day q.d. orally, α-SMA IHC of liver day 43): dose-dependent | efficacy in inhibition compared with pirfenidone ([7]; pirfenidone 250 mg/kg/day q.d. orally): higher than pirfenidone | % Cytotoxicity CBPI Index [1, 13]: 57.4% | % Micronucleated Cells [1, 13]: 1.45% | % Cytotoxicity CBPI Index [1, 14]: 62.2% | % Micronucleated Cells [1, 14]: 1.76% | % Cytotoxicity CBPI Index [1, 15]: 41.5% | % Micronucleated Cells [1, 15]: 1.64% | % Cytotoxicity CBPI Index [1, 16]: 68.8% | % Micronucleated Cells [1, 16]: 1.94% | % Cytotoxicity CBPI Index [1, 17]: 47.3% | % Micronucleated Cells [1, 17]: 1.26% | genotoxicity (micronucleus assay) ([1]; overall result of the assay): negative | Flat ([1]; second section (CHO + S9, HCA), 1.3E−04 M): CYTO (High cytotoxicity resulting in an insufficient number of scored cells (≥80% cytotoxicity)) | % Cytotoxicity CBPI Index [1, 18]: 53.1% | % Micronucleated Cells [1, 18]: 1.35% | Flat ([1]; second section (CHO + S9, HCA), 2.5E−04 M): CYTO (High cytotoxicity resulting in an insufficient number of scored cells (≥80% cytotoxicity)) | % Cytotoxicity CBPI Index [1, 19]: 58.8% | % Micronucleated Cells [1, 19]: 1.25% | Flat ([1]; second section (CHO + S9, HCA), 6.3E−05 M): CYTO (High cytotoxicity resulting in an insufficient number of scored cells (≥80% cytotoxicity)) | % Cytotoxicity CBPI Index [1, 20]: 26.7% | % Micronucleated Cells [1, 20]: 1.29% | cytotoxicity at 0.00013 M [8, 13]: 37.6% | cytotoxicity at 0.00025 M [8, 14]: 51.8% | cytotoxicity at 31 µM ([8]; first section (CHO + S9, HCA)): 19.1% | cytotoxicity at 0.0005 M [8, 16]: 61.7% | cytotoxicity at 63 µM [8, 17]: 31.9% | cytotoxicity at 16 µM [8, 18]: 60.4% | cytotoxicity at 31 µM ([8]; second section (CHO + S9, HCA)): 69% | cytotoxicity at 7.8 µM [8, 20]: 42.2%
